Data on 2 compounds can be found in patent US20070015733A1, “Aryl Phosphate Derivatives of d4T having Activity Against Resistant HIV Strains” (Parker Hughes Institute, priority 1998, published 2007).

Series [1] concerns HIV-1 HTLVIIIB
The experiment in a line: microbe, parasite or virus in culture. The conditions noted are these: read-out: IC50 HTLVIIIB; PBMNC, p24. The procedure: In vitro assays of anti-HIV-1 activity. Normal human peripheral blood mononuclear cells (PBMNC) from HIV-negative donors were cultured 72 hours in RPMI 1640 supplemented with 20% (v/v) heat-inactivated fetal bovine serum (FBS), 3% interleukin-2, 2 mM L-glutamine, 25 mM HEPES, 2 g/L NaHCO3, […], and […] prior to exposure to HIV-1 at a multiplicity of infection (MOI) of 0.1 during a 1 hour adsorption period at 37° C. in a humidified 5% CO2 atmosphere. Subsequently, cells were cultured in 96-well microtiter plates ([…]; 2×10^6 cells/mL) in the presence of various concentrations of d4T phosphoramidates and aliquots of culture supernatants were removed from the wells on the 7th day after infection for p24 antigen assays, as previously described (Uckun et al., 1998, Antimicrobial Agents and Chem., 42(2):383-388). The applied p24 enzyme immunoassay (EIA) was the unmodified kinetic assay commercially available from Coulter Corporation/Immunotech, Inc. (Westbrooke, Me.), which utilizes a murine mAb to HIV core protein coated onto microwell strips to which the antigen present in the test culture supernatant samples binds. Percent viral inhibition was calculated by comparing the p24 values from untreated infected cells (i.e., virus controls).
The anti-HIV activity of the compounds was examined by evaluating their ability to inhibit HIV replication in peripheral blood mononuclear cells using previously described procedures (Uckun et al., 1998, Antimicrobial Agents and Chem., 42(2):383-388). Percent inhibition of viral replication was calculated by comparing the p24 antigen levels from the test substance-treated infected cells with those from vehicle-treated infected cells.
Antiviral susceptibility assays. Phenotypic drug susceptibility studies of HIV-1 isolates and strains were performed by measuring the production of the p24 gag protein in peripheral blood mononuclear cells (PBMC) from seronegative healthy volunteers in the presence of increasing concentrations of the anti-HIV agent using the quantitative Coulter HIV-1 p24 antigen ezyme immunoassay (EIA) and HIV-1 p24 Antigen Kinetic Standard (Beckman Coulter), as previously described (Uckun, 1998, Antimicrobial Agents and Chemotherapy 37(4): 835-38). Informed consent was obtained from the blood donors according to DHHS guidelines using consent forms approved by the Institutional Review Board. In brief, PBMC were cultured for 72 h in RPMI 1640 medium (Gibco) supplemented with 20% (vol/vol) heat-inactivated fetal bovine serum, 5% human interleukin-2 (Zeptometrix), 2 mM L-glutamine, 25 mM HEPES, 2 g/L NaHCO3, 100 U/ml penicillin/streptomycin (Gibco), 50 μg/ml gentamicin (Gibco), and 5 μg/ml phytohemagglutinin-P (PHA-P) (Sigma) for 24-72 hours prior to exposure to HIV at a multiplicity of infection of 0.001-0.1 during a 1-h adsorbtion period at 37±1° C. in a humidified 5-7% CO2 atmosphere. Subsequently, cells were cultured in 96-well microtiter plates (100 μl/well; 2×10^6 cells/ml, triplicate wells) in the presence of the anti-HIV agents at 6-7 different concentrations ranging from 0.0001 μM to 100 μM, and 25 μL aliquots of culture supernatants were removed from the wells on day 6 after infection for p24 EIA, as previously described (Uckun, 1998, Antimicrobial Agents and Chemotherapy, 37(4):835-38). Controls included uninfected and untreated cells (background control) and infected but untreated (virus control) cells. The p24 EIA utilizes a murine monoclonal antibody to HIV core protein used to coat microwell strips to which the antigen present in the test culture supernatant samples binds. Percent inhibition of viral replication was calculated by comparing the p24 values from the test substance-treated infected cells with p24 values from untreated infected cells (i.e., virus controls). The IC50 values were determined using the Statview statistics program (SAS Institute, Inc.).

Series [2] concerns HIV-1 RT-MDR (NRTI-resistant, NNRTI-resistant). The experiment in a line: p24 antigen assay, RT-MDR strain. The format is cell-based. The conditions noted are these: p24; read-out: IC50 RTMDR.
A short description of series [3]: Alkaline chemical hydrolysis rate (NaOH/methanol, HPLC). The format is physicochemical. The conditions noted are these: alkali hydrolysis. The procedure: All chemicals were purchased from Aldrich (Milwaukee, Wis.), with the exception of d4T which was synthesized in-house. All syntheses were performed under a nitrogen atmosphere. ^1H, ^13C, and ^31P NMR were obtained on a Varian Mercury 300 instrument at ambient temperature in CDCl3. FT-IR spectra were recorded on a Nicolet Protege 460 spectrometer. MALDI-TOF mass spectra were obtained by using a Finnigan MAT 95 system. UV spectra were recorded by using a Beckmann UV-VIS spectrophotometer (Model 3DU 74000) with a cell path length of 1 cm. HPLC purification was achieved by using a reverse-phase Lichrospher column (250×4 mm, Hewlett-Packard, RP-18, Cat # 79925) and an isocratic flow (1 ml/minute) consisting of water (70%) and acetonitrile (30%). The alkaline chemical hydrolysis was conducted at room temperature with sodium hydroxide (1 ml of 0.05N) and 3 ml of methanol solution containing 10 mg of the substrates in a Teflon lined reaction vial. […] The disappearance of the starting material was monitored as a function of time. […]
Statistical Analysis. The IC50 values were calculated from each set of triplicate wells using nonlinear regression modeling of the exponential form of the linearized equation. […] Hydrolysis rates were determined by fitting single exponential decay equations to the disappearance of the compound in alkali conditions. […]

Series [4] is described as follows: Octanol/water partition coefficient, shake flask method. It counts as physicochemical. The procedure: Partition Coefficients. The octanol/water partition coefficient was determined by the shake flask method. The phosphoramidate analogs were added to 2 ml of water and 2 ml of octanol in a glass vial. The mixture was shaken for 4 hours at room temperature. The two phases were carefully separated and filtered through a Millipore filter and analyzed by HPLC. The partition coefficient was calculated using the ratio of the area under the curve for octanol and water respectively.

The subject of series [5] is HIV-1 A17 (Y181C mutant, NNRTI-resistant). The experiment in a line: p24 antigen assay, A17 strain in PBMC. It counts as cell-based. The conditions noted are these: PBMNC, p24; read-out: IC50 A17. From the text:
(§1) In vitro assays of anti-HIV-1 activity.
(§2) Viruses. 20 primary clinical isolates with genotypic and/or phenotypic NRTI-resistance (isolated in the laboratory of D. Richman) and 10 clinical isolates with phenotypic stavudine (d4T) resistance (obtained through the AIDS Research and Reference Reagent Program, NIAID) were used in the current study. The HIV-1 strains HTLVIIIB (wildtype RT, NRTI-sensitive, NNRTI-sensitive), A17 (Y181 C mutant, NNRTI-resistant), A17-variant (Y181C+K103N mutant, NNRTI-resistant), and RT-MDR (M41 L, V106N, T215Y; NRTI-resistant, NNRTI-resistant) were also obtained from the AIDS Research and Reference Reagent Program, NIAID.
(§3) Antiviral susceptibility assays.

The test system of series [6] is HIV-1 A17-variant (Y181C+K103N mutant, NNRTI-resistant). The series is described as follows: p24 antigen assay, A17-variant strain in PBMC. The format is cell-based. The conditions noted are these: PBMNC, p24; read-out: IC50 A17V.
Text: as §1, §2, §3

As to `COC(=O)C(C)NP(=O)(OCC1C=CC(n2cc(C)c(=O)[nH]c2=O)O1)Oc1cccc(Br)c1` (centres unmarked) [Compound 9, 5′-[3-Bromophenylmethoxyalaninylphosphate]-2′,3′-didehydro-3′-deoxythymidine], the half-maximal inhibitory concentration (IC50) – broadly, the point on the concentration scale where inhibition reaches its midpoint – was 0.002 ± 0.002 µM in series [1], 0.493 ± 0.285 µM in series [2] and 0.042 ± 0.024 µM in series [5]. Besides, in series [3], the “Hydrolysis Rate” value is 0.0338 min⁻¹. For the same compound, the “Partition Coefficient (log P)” value in series [4] is on record as 1.12.

For the compound `COC(=O)C(C)NP(=O)(OCC1C=CC(n2cc(C)c(=O)[nH]c2=O)O1)Oc1ccccc1Cl` (centres unmarked) [Compound 13, 5′-[2-Chlorophenylmethoxyalaninylphosphate]-2′,3′-didehydro-3′-deoxythymidine], the IC50 in series [1] was determined as 0.003 ± 0.001 µM; in series [2], 0.187 ± 0.108 µM; in series [6], 0.015 ± 0.008 µM; in series [5], 0.034 ± 0.02 µM. Further, in series [3], the “Hydrolysis Rate” value was 0.0370 min⁻¹. In addition, in series [4], the “Partition Coefficient (log P)” value turned out to be 0.84.
